Results from patent US8440646B1 (priority 2006, dated 2013).
In brackets after ≈: the same amount, converted by molar mass. Like-named read-outs stand apart in the source and are kept apart here.

Columns and labels:
protein synthesis = settings: cited from earlier work
B. anthracis V770 = assay: microbe, parasite or virus in culture; format: cell-based; settings: Bacillus anthracis
COS-1 = settings: African green monkey
S. aureus MRSA5 = assay: microbe, parasite or virus in culture; format: cell-based; settings: Staphylococcus aureus
S. pneumoniae 700905 [1] = assay: microbe, parasite or virus in culture; format: cell-based; settings: Streptococcus pneumoniae
B. anthracis Vollum1B = assay: microbe, parasite or virus in culture; format: cell-based; settings: Bacillus anthracis
B. anthracis Ame = assay: microbe, parasite or virus in culture; format: cell-based; settings: Bacillus anthracis
CHO-K1 = settings: Chinese hamster
E. faecalis 29212 = assay: microbe, parasite or virus in culture; format: cell-based; settings: Enterococcus faecalis
B. anthracis Sterne = assay: microbe, parasite or virus in culture; format: cell-based; settings: Bacillus anthracis
E. faecium 494 = assay: microbe, parasite or virus in culture; format: cell-based; settings: Enterococcus faecium
S. pneumoniae 157E [2] = assay: animal or person; format: in vivo, mice; settings: Streptococcus pneumoniae, 157E, in Mus musculus, 48 h, read-out: % survival; for responders at 5 mg/kg: sc
[3] = tested on: Protein synthesis of S. aureus RN450; assay: microbe, parasite or virus in culture; format: cell-based; settings: for IC50 / IC90: Staphylococcus aureus; for IC50: read-out: Protein synthesis IC50; for IC90: read-out: Protein synthesis IC90
[4] = tested on: Peptidoglycan synthesis of S. aureus RN450; assay: microbe, parasite or virus in culture; format: cell-based; settings: Staphylococcus aureus; for IC50: read-out: Peptidoglycan synthesis IC50; for IC90: read-out: Peptidoglycan synthesis IC90
S. aureus RN450 = assay: microbe, parasite or virus in culture; format: cell-based; settings: Staphylococcus aureus
16S rRNA = settings: cited from earlier work
S. pneumoniae 157E [5] = tested on: S. pneumoniae 157E; set-up: species or system mice; settings: mouse, in vivo
S. pneumoniae 700905 [6] = tested on: S. pneumoniae 700905; set-up: species or system mice; settings: mouse, in vivo
S. pneumoniae PBS1339 = tested on: S. pneumoniae PBS1339; set-up: species or system mice; settings: mouse, in vivo
B. cereus 97/4144 = assay: microbe, parasite or virus in culture; format: cell-based; settings: Bacillus cereus
B. cereus 95/3032 = assay: microbe, parasite or virus in culture; format: cell-based; settings: Bacillus cereus
B. cereus 98/2658 = assay: microbe, parasite or virus in culture; format: cell-based; settings: Bacillus cereus
B. cereus 98/2620 = assay: microbe, parasite or virus in culture; format: cell-based; settings: Bacillus cereus
S. pneumoniae 157E [7] = assay: microbe, parasite or virus in culture; format: cell-based; settings: Streptococcus pneumoniae
S. aureus RN4250 = assay: microbe, parasite or virus in culture; format: cell-based; settings: for MIC: Staphylococcus aureus, RN4250

Row | SMILES | inhibition of protein synthesis in words (protein synthesis) | MIC (B. anthracis V770) [µg/mL] | Tox50 (COS-1) [µg/mL] | MIC (S. aureus MRSA5) [µg/mL] | MIC (S. pneumoniae 700905 [1]) [µg/mL] | MIC (B. anthracis Vollum1B) [µg/mL] | MIC (B. anthracis Ame) [µg/mL] | Tox50 (CHO-K1) [µg/mL] | MIC (E. faecalis 29212) [µg/mL] | MIC (B. anthracis Sterne) [µg/mL] | MIC (E. faecium 494) [µg/mL] | IC50 [3] [µg/mL] | IC90 [3] [µg/mL] | IC50 [4] [µg/mL] | IC90 [4] [µg/mL] | MIC (S. aureus RN450) [µg/mL] | effect on reactivity of nucleotides within the 16S rRNA (chemical footprint) (16S rRNA) | other results
1 | Cc1c2c(c(O)c3c(O)ccc(Cl)c13)C(=O)C1(O)C(=O)C(C(N)=O)=C(O)C(N(C)C)C1C2 (stereo not drawn) [4-epi-anhydrochlorotet] | weak effects |  |  |  |  |  |  |  |  |  |  |  |  |  |  |  |  | 
2 | CC(C)c1cc(CN2CC=CCC2)c(O)c2c1C[C@H]1C[C@H]3[C@H](N(C)C)C(O)=C(C(N)=O)C(=O)[C@@]3(O)C(O)=C1C2=O [AF] |  | 0.06 (≈ 0.109 µM) | >100 | 0.13 (≈ 0.236 µM) | 0.06 (≈ 0.109 µM) | < 0.03 | < 0.03 | >100 | 0.13 (≈ 0.236 µM) | < 0.03 | 0.25 (≈ 0.453 µM) |  |  |  |  |  |  | 
3 | CN(C)c1cc(CN2Cc3ccccc3C2)c(O)c2c1C[C@H]1C[C@H]3[C@H](N(C)C)C(O)=C(C(N)=O)C(=O)[C@@]3(O)C(O)=C1C2=O [AI] |  | 0.12 (≈ 0.204 µM) | >100 | 0.5 (≈ 0.849 µM) | 0.06 (≈ 0.102 µM) | < 0.03 | 0.06 (≈ 0.102 µM) | >100 | 0.5 (≈ 0.849 µM) | < 0.03 | 0.5 (≈ 0.849 µM) |  |  |  |  |  |  | responders at 10 mg/kg (S. pneumoniae 157E [2]; po): 0%; responders at 5 mg/kg (S. pneumoniae 157E [2]): 40%
4 | CN(C)c1cc(CN2CCC3CCCCC3C2)c(O)c2c1C[C@H]1C[C@H]3[C@H](N(C)C)C(O)=C(C(N)=O)C(=O)[C@@]3(O)C(O)=C1C2=O (some centres unmarked) [AJ] |  | < 0.03 | >100 | 0.5 (≈ 0.821 µM) | 0.06 (≈ 0.0986 µM) | < 0.03 | < 0.03 | >100 | 0.5 (≈ 0.821 µM) | < 0.03 | 0.5 (≈ 0.821 µM) |  |  |  |  |  |  | responders at 50 mg/kg (S. pneumoniae 157E [2]; po): 80%; responders at 5 mg/kg (S. pneumoniae 157E [2]): 100%
5 | COc1ccc(-c2cc(CNC(C)CF)c(O)c3c2C[C@H]2C[C@H]4[C@H](N(C)C)C(O)=C(C(N)=O)C(=O)[C@@]4(O)C(O)=C2C3=O)cn1 (some centres unmarked) [AM] |  | 0.12 (≈ 0.197 µM) | >100 | 0.25 (≈ 0.409 µM) | 0.06 (≈ 0.0983 µM) | 0.06 (≈ 0.0983 µM) | 0.06 (≈ 0.0983 µM) | 92.85 | 0.13 (≈ 0.213 µM) | 0.06 (≈ 0.0983 µM) | 0.25 (≈ 0.409 µM) |  |  |  |  |  |  | responders at 50 mg/kg (S. pneumoniae 157E [2]; po): 0%; responders at 5 mg/kg (S. pneumoniae 157E [2]): 100%
6 | Cc1c2c(c(O)c3c(O)cccc13)C(=O)[C@]1(O)C(=O)C(C(N)=O)=C(O)[C@@H](N(C)C)[C@@H]1C2 [Anhydro-tetracycline, anhydrotetracycline, reference compound] | weak effects |  |  |  |  |  |  |  |  |  |  | < 0.03 | < 0.03 | 19.2 (≈ 45 µM) | > 32 | 2 (≈ 4.69 µM) | A similar effect was not seen | 
7 | O=C(O)c1cn(C2CC2)c2cc(N3CCNCC3)c(F)cc2c1=O [Ciprofloxacin, reference compound] |  | 0.12 (≈ 0.362 µM) |  |  |  | 0.25 (≈ 0.754 µM) | 0.25 (≈ 0.754 µM) |  |  | 0.25 (≈ 0.754 µM) |  |  |  |  |  |  |  | PD50 (S. pneumoniae 157E [5]; iv): >50 mg/kg; PD50 (S. pneumoniae 700905 [6]; po): >50 mg/kg
8 | CN(C)c1cc(CN2CCC(F)(F)CC2)c(O)c2c1C[C@H]1C[C@H]3[C@H](N(C)C)C(O)=C(C(N)=O)C(=O)[C@@]3(O)C(O)=C1C2=O [Compound H] |  | < 0.03 | >100 | 0.35 (≈ 0.593 µM) | 0.06 (≈ 0.102 µM) | < 0.03 | < 0.03 | >100 | 0.5 (≈ 0.847 µM) | < 0.03 | 0.5 (≈ 0.847 µM) |  |  |  |  |  |  | IV and PO efficacy in words (S. pneumoniae 157E [5]): exhibits IV and PO efficacy; PD50 (S. pneumoniae 157E [5]; iv): 1.1 mg/kg; PD50 (S. pneumoniae 157E [5]; po): 5 mg/kg; oral activity in words (S. pneumoniae 157E [5]; po): exhibited oral activity; PD50 (S. pneumoniae 700905 [6]; iv): 2.2 mg/kg; PD50 (S. pneumoniae 700905 [6]; po): 12.7 mg/kg; efficacy in model of lung infection in words (S. pneumoniae PBS1339): efficacious; PD50 (S. pneumoniae PBS1339; iv): <5.0 mg/kg; PD50 (S. pneumoniae PBS1339; po): 3.6 mg/kg
9 | CN(C)c1ccc(O)c2c1C[C@H]1C[C@H]3[C@H](N(C)C)C(O)=C(C(N)=O)C(=O)[C@@]3(O)C(O)=C1C2=O [Minocycline, reference compound] | potent inhibitors of protein synthesis |  |  | 2 (≈ 4.37 µM) | 8 (≈ 17.5 µM) |  |  |  | 4 (≈ 8.74 µM) |  | 16 (≈ 35 µM) | < 0.03 | 0.1 (≈ 0.219 µM) | 4.6 (≈ 10.1 µM) | 20.9 (≈ 45.7 µM) | 0.25 (≈ 0.546 µM) | affect the reactivity of nucleotides | MIC (B. cereus 97/4144): 0.5 µg/mL (≈ 1.09 µM); PD50 (S. pneumoniae 157E [5]; iv): 0.53 mg/kg; PD50 (S. pneumoniae 157E [5]; po): 1.5 mg/kg; MIC (B. cereus 95/3032): ≤ 0.06 µg/mL; PD50 (S. pneumoniae 700905 [6]; iv): >50 mg/kg; PD50 (S. pneumoniae 700905 [6]; po): >50 mg/kg; MIC (B. cereus 98/2658): ≤ 0.06 µg/mL; MIC (B. cereus 98/2620): 0.5 µg/mL (≈ 1.09 µM); MIC (S. pneumoniae 157E [7]): 0.06 µg/mL (≈ 0.131 µM); PD50 (S. pneumoniae PBS1339; iv): 4.5 mg/kg; PD50 (S. pneumoniae PBS1339; po): 3.6 mg/kg; susceptibility in words (S. aureus RN4250): susceptible; MIC (S. aureus RN4250): 0.5 µg/mL (≈ 1.09 µM)
10 | CN(C)C1C(O)=C(C(N)=O)C(=O)C2(O)C(O)=C3C(=O)c4c(O)cccc4C(C)(O)C3CC12 (centres unmarked) [Tetracycline, reference compound] | potent inhibitors of protein synthesis |  |  | 32 (≈ 72 µM) | 32 (≈ 72 µM) |  |  |  | 16 (≈ 36 µM) |  | 64 (≈ 144 µM) | < 0.03 | 0.11 (≈ 0.248 µM) | > 32 | > 32 | 0.06 (≈ 0.135 µM) | affect the reactivity of nucleotides | MIC (B. cereus 97/4144): 64 µg/mL (≈ 144 µM); MIC (B. cereus 95/3032): ≤ 0.06 µg/mL; MIC (B. cereus 98/2658): ≤ 0.06 µg/mL; MIC (B. cereus 98/2620): 32 µg/mL (≈ 72 µM); MIC (S. pneumoniae 157E [7]): 0.06 µg/mL (≈ 0.135 µM); susceptibility in words (S. aureus RN4250): resistant; MIC (S. aureus RN4250): 64 µg/mL (≈ 144 µM)
11 | CN(C)c1cc(NC(=O)CNC(C)(C)C)c(O)c2c1C[C@H]1C[C@H]3[C@H](N(C)C)C(O)=C(C(N)=O)C(=O)[C@@]3(O)C(O)=C1C2=O [Tigecycline, reference compound] |  |  |  |  |  |  |  |  |  |  |  | 0.12 (≈ 0.205 µM) | 0.68 (≈ 1.16 µM) | > 32 | > 32 | 2 (≈ 3.41 µM) | chemical footprint similar to that of tetracycline | macromolecular synthesis profile in words [3]: profile similar to class I compounds
